Measurements reported in paper PMC5391016 (PLoS ONE, 2017).

System: T1, Epac1-camps-PDE4A1
T1 construct: gene RAPGEF3
Conditions: read-out: pEC50 5.56 ± 0.08 (converted); 10 mM Tris, 10 mM MgCl2; apparent affinity; PDE catalytically impaired

EC50: 2.7 µM
SMILES: Nc1ncnc2c1ncn2[C@@H]1O[C@@H]2COP(=O)(O)O[C@H]2[C@H]1O [cAMP]
